Source: paper PMC3019225, “Striatal Pre- and Postsynaptic Profile of Adenosine A2A Receptor Antagonists” (PLoS ONE, 2011)

What was measured:
rats [1] = assay: Motor output induced by cortical electrical stimulation (EMG recording, power correlation coefficient PCC); assay type: in vivo, rat; conditions: for Dose significantly reducing PCC: i.p., PCC 40 min after administration
Procedure: (§1) Male Sprague-Dawley rats (Charles River Laboratories, Wilmington, MA) weighting between 300–350 g were used in these experiments. Rats were housed 2 per cage and they maintained at a temperature of 22±2°C on a regular 12-h light–dark cycle. Food and water were available ad libitum.
(§2) All drugs but MSX-3 (Sigma-Aldrich, St. Louis, MI) were provided by CHDI Foundation Inc. (Los Angeles, CA, US). SCH-420814 was administered subcutaneously (s.c.) at 1 ml/kg and the other drugs were administered via intraperitonal (i.p.) injection at volume of 2 ml/kg.
Rats were anesthetized with 3 ml/kg of Equithesin (4.44 g of chloral hydrate, 0.972 g of Na pentobarbital, 2.124 g of MgSO4, 44.4 ml of propylene glycol, 12 ml of ethanol and distilled H2O up to 100 ml of final solution; NIDA Pharmacy, Baltimore, MD) and implanted unilaterally with bipolar stainless steel electrodes, 0.15 mm in diameter (Plastics One, Roanoke, VA), into the orofacial area of the lateral agranular motor cortex (3 mm anterior, 3 and 4 mm lateral, and 4.2 mm below bregma). The electrodes and a head holder (connected to a swivel during stimulation) were fixed on the skull with stainless steel screws and dental acrylic resin. For the experiments with electromyographic (EMG) recording, electrodes were also implanted in mastication muscles (during the same surgical procedure). Two 5 mm-long incisions were made in the skin on the upper and lower jaw areas to expose the masseter and the lateral pterygoid muscles. […] The bare tips of the electrodes were then held in contact with the masseter and the lateral pterygoid muscles and the skin was closed with surgical staples. The other end of the recording electrodes was encased in a molded plastic pedestal with a round threaded post which was attached to an electrical swivel and then to a differential amplifier (Grass LP511, Grass Instruments, Warwick, RI). The pedestal was secured to the skull with dental cement together with the stimulation electrodes. For the in vivo microdialysis experiments, concentric microdialysis probes with 2-mm long dialysis membranes (Eicom Corp., Tokio, Japan) were implanted respectively into the striatum ipsilateral to the stimulation electrodes (0.0 mm AP, 4.5 ML and 7.0 mm DV).
Rats were placed in individual bowl chambers. Both stimulation electrodes and recording electrodes were attached using flexible shielded cabling to a four channel electrical swivel. Stimulation electrodes were connected to two-coupled constant current isolation units (PSIU6X, Grass Instruments West Warwick, RI) driven by an electrical stimulator (Grass S88X; Grass Instruments). The recording electrodes were connected to a differential amplifier (Grass LP511, West Warwick, RI). This configuration allows the rat to move freely while the stimulation and EMG recordings are taking place. After 60 min of habituation, biphasic current pulse trains (pulse of 0.1 ms at 120–200 µA; 100 Hz, 160 ms trains repeating once per 2 seconds) were delivered. The current intensity was adjusted to the threshold level, defined as the minimal level of current intensity allowing at least 95% of the stimulation pulses to elicit a positive EMG response. Positive EMG response was defined as at least 100% increase of the peak to peak amplitude respect to the background tonic EMG activity lasting more than 100 ms or at least 70% increase in the power of the EMG signal respect to the baseline. Positive EMG responses always matched observable small jaw movements. […]

[2] = system: striatal glutamate release induced by cortical electrical stimulation; assay: In vivo microdialysis with cortical electrical stimulation; design: species or system rat; conditions: 1 mg/kg i.p.
Procedure: as §1
Rats were anesthetized with 3 ml/kg of Equithesin (4.44 g of chloral hydrate, 0.972 g of Na pentobarbital, 2.124 g of MgSO4, 44.4 ml of propylene glycol, 12 ml of ethanol and distilled H2O up to 100 ml of final solution; NIDA Pharmacy, Baltimore, MD) and implanted unilaterally with bipolar stainless steel electrodes, 0.15 mm in diameter (Plastics One, Roanoke, VA), into the orofacial area of the lateral agranular motor cortex (3 mm anterior, 3 and 4 mm lateral, and 4.2 mm below bregma). The electrodes and a head holder (connected to a swivel during stimulation) were fixed on the skull with stainless steel screws and dental acrylic resin. […]
The experiments were performed on freely moving rats 24 h after probe implantation. […] Glutamate content was measured by reverse-phase HPLC coupled to a flourimetric detector (Shimadzu Inc., Tokio, Japan). Glutamate values were transformed as percentage of the mean of the three values before the drug or vehicle injection and transformed values were statistically analyzed.

rats [3] = assay: Locomotor activity in habituated rats; assay type: in vivo, rat; conditions: for Locomotor activation: 1 mg/kg i.p.; for Dose producing significant locomotor activation: i.p., 90 min after administration, habituated rats
Procedure: as §1, §2
Locomotor activity was measured by placing the animals individually in motility soundproof chambers (50×50 centimeters; Med Associates Inc., VT). Locomotion was measured by counting the number of breaks in the infrared beams of the chambers. The animals were placed in individual acrylic chambers at noon on the day of testing. A lamp inside each chamber remained lit during this period. Following 90 min of habituation, the rats were injected i.p. with different doses of each compound or vehicle and locomotor activity was recorded for 90 min after the drug or vehicle administration. All the animals were tested only once. The effect of different doses of the A2AR antagonists on locomotor activity were analyzed using a one-way analysis of variance (ANOVA), followed by Newman-Keuls' post-hoc test.

[4] = target: T1, A2AR in A2AR-D2R heteromers (Homo sapiens, UniProt P29274); conditions: for Reduction of the affinity of A2AR by co-transfection with D2R: A2AR-D2R cells versus A2AR cells; for DCB (dimer cooperativity index): A2AR-D2R cells, A2AR, [^3H]ZM-241385 2 nM
T1 sequence (P29274 whole entry): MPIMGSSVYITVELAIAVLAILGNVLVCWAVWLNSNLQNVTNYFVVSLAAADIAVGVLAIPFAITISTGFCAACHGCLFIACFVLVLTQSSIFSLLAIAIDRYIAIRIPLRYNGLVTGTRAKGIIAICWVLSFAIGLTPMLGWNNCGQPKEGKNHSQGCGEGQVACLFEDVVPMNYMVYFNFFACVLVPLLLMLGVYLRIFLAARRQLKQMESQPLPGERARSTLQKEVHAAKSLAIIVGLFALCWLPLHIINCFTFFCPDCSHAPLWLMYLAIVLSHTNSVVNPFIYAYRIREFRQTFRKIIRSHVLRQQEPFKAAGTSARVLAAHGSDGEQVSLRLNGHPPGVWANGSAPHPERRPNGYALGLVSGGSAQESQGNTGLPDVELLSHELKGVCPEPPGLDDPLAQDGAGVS
T1 sequence (P14416 whole entry partner): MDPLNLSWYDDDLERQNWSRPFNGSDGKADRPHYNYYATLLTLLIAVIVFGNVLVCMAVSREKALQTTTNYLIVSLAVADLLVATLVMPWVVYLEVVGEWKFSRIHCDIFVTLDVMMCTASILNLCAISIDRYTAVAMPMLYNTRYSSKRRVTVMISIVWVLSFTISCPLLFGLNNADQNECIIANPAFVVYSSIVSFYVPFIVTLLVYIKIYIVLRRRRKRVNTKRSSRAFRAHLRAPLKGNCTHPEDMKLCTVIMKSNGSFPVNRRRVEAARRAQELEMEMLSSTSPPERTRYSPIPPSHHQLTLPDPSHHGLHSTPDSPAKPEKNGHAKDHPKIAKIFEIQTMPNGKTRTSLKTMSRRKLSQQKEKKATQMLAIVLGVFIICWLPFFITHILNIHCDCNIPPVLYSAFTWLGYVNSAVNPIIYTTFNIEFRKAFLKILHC

[5] = target: T1, A2AR in A2AR-D2R heteromers; assay: biochemical
[6] = target: T2, A2AR in A1R-A2AR heteromers (Homo sapiens, UniProt P29274); assay: biochemical
T2 sequence (P29274 whole entry): as the sequence (P29274 whole entry) above
T2 sequence (P30542 whole entry partner): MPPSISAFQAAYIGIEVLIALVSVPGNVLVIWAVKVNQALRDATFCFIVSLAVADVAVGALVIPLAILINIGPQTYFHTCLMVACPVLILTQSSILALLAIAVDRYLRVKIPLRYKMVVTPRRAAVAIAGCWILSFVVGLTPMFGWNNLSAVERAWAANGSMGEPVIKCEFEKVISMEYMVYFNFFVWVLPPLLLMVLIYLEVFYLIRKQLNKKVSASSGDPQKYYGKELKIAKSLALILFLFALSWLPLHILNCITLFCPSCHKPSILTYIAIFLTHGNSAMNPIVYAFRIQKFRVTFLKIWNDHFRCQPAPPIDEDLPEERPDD

[7] = target: T2, A2AR in A1R-A2AR heteromers; conditions: A2AR-A1R cells, [^3H]ZM-241385 2 nM
A2AR [8] = target: T3, A2AR (Homo sapiens, UniProt P29274); conditions: A2AR cells; [^3H]ZM-241385 2 nM
T3 sequence (P29274 whole entry): as the sequence (P29274 whole entry) above

A2AR [9] = target: T3, A2AR; assay: biochemical
[10] = system: striatal glutamate release induced by cortical electrical stimulation; design: method as in PMID 19936569; conditions: intrastriatal perfusion; previous study; ref [5]; cited from earlier work
[11] = target: A1R in A1R-A2AR heteromers (Homo sapiens, UniProt P30542); conditions: A2AR-A1R cells, [^3H]DPCPX 2 nM
A1R in A1R-A2AR heteromers, sequence (P29274 whole entry): as above
A1R in A1R-A2AR heteromers, sequence (P30542 whole entry): as the sequence (P30542 whole entry partner) above

| SMILES | Reduction of PCC (rats [1]; 1 mg/kg i.p.) | Dose significantly reducing PCC (rats [1]) [mg/kg] | Effect on striatal glutamate release induced by cortical stimulation [2] | Locomotor activation (rats [3]) | Dose producing significant locomotor activation (rats [3]) | Reduction of the affinity of A2AR by co-transfection with D2R [4] | DCB (dimer cooperativity index) [4] | Kd [5] [nM] | Kd [6] [nM] | DCB (dimer cooperativity index) [7] | DCB (dimer cooperativity index) (A2AR [8]) | Kd (A2AR [9]) [nM] | other results |
| --- | --- | --- | --- | --- | --- | --- | --- | --- | --- | --- | --- | --- | --- |
| CCn1c(=O)c2c(nc(/C=C/c3ccc(OC)c(OC)c3)n2C)n(CC)c1=O [KW-6002, (E)-1,3-diethyl-8-(3,4-dimethoxystyryl)-7-methyl-3,7-dihydro-1H-purine-2,6-dione] | did not reduce PCC | > 10 | did not modify | pronounced locomotor activation | 0.3 mg/kg |  |  |  |  |  |  |  |  |
| C#CCn1c(=O)c2c(nc(/C=C/c3cccc(OC)c3)n2C)n(CCCO)c1=O [MSX-2, (E)-3-(3-hydroxypropyl)-8-[2-(3-methoxyphenyl)vinyl]-7-methyl-1-prop-2-ynyl-3,7-dihydropurine-2,6-dione] |  |  |  |  |  | two to about nine | 0 | 7 ± 2 | 4.2 ± 0.3 | 0 | 0 | 3.2 ± 0.2 |  |
| C#CCn1c(=O)c2c(nc(/C=C/c3cccc(OC)c3)n2C)n(CCCOP(=O)(O)O)c1=O.[Na].[Na] [MSX-3, (E)-phosphoric acid mono-(3-{8-[2-(3-methoxyphenyl)vinyl]-7-methyl-2,6-dioxo-1-prop-2-ynyl-1,2,6,7-tetrahydropurin-3-yl}propyl) ester disodium salt] |  |  |  |  |  |  |  |  |  |  |  |  | Reduction of PCC (rats [1]; dose-response, Fig. 2): very effective reduction of PCC; Effect on striatal glutamate release induced by cortical electrical stimulation [10]: almost completely counteracted |
| C[C@H](Cc1ccccc1)Nc1ncnc2c1ncn2[C@@H]1O[C@H](CO)[C@@H](O)[C@H]1O [R-PIA] |  |  |  |  |  |  |  |  |  |  |  |  | B50 (concentration providing half saturation) [11]: 30 ± 10 nM |
| COCCOc1ccc(N2CCN(CCn3ncc4c3nc(N)n3nc(-c5ccco5)nc43)CC2)cc1 [SCH-420814, 2-(2-furanyl)-7-[2-[4-[4-(2-methoxyethoxy)phenyl]-1-piperazinyl]ethyl]-7H-pyrazolo[4,3-e][1], [2], [4]-triazolo[1,5-c]pyrimidin-5-amine] |  |  |  |  |  | two to about nine | 0 | 2.7 ± 0.8 | 1.1 ± 0.1 | 0 | 0 | 0.5 ± 0.1 |  |
| COc1ccc(CCCn2ncc3c2nc(N)n2nc(-c4ccco4)nc32)cc1 [SCH-442416, 2-(2-Furanyl)-7-[3-(4-methoxyphenyl)propyl]-7H-pyrazolo[4,3-e][1], [2], [4]triazolo[1,5-c]pyrimidin-5-amine] | strongly reduced PCC | 0.1 | significantly counteracted | did not induce locomotor activation | higher than 3 mg/kg |  |  |  |  |  |  |  |  |
